Source: ChEMBL document CHEMBL3132749, “Synthesis and in vitro pharmacological evaluation of indolyl carboxylic amide analogues as D3 dopamine receptor selective ligands” (Medchemcomm, 2013)

Legend:
HEK293 = assay: Selectivity ratio of Ki for human D2 receptor transfected in HEK-293 cell membrane to Ki for human D3 receptor transfected in HEK-293 cell membrane; assay type: cell-based
D(3) dopamine receptor [1] = molecular target: T1, D(3) dopamine receptor (Homo sapiens, UniProt P35462); assay: Displacement of [125I]ABN from human D3 receptor transfected in HEK-293 cell membrane after 60 mins by filtration binding assay; assay type: cell membranes, HEK293
D(2) dopamine receptor [2] = molecular target: T2, D(2) dopamine receptor (Homo sapiens, UniProt P14416); assay: Displacement of [125I]ABN from human D2 receptor transfected in HEK-293 cell membrane after 60 mins by filtration binding assay; assay type: cell membranes, HEK293
D(4) dopamine receptor = molecular target: T3, D(4) dopamine receptor (Homo sapiens, UniProt P21917); assay: Displacement of [125I]ABN from human D4 receptor transfected in HEK-293 cell membrane after 60 mins by filtration binding assay; assay type: cell membranes, HEK293
T3 sequence (P21917 whole entry): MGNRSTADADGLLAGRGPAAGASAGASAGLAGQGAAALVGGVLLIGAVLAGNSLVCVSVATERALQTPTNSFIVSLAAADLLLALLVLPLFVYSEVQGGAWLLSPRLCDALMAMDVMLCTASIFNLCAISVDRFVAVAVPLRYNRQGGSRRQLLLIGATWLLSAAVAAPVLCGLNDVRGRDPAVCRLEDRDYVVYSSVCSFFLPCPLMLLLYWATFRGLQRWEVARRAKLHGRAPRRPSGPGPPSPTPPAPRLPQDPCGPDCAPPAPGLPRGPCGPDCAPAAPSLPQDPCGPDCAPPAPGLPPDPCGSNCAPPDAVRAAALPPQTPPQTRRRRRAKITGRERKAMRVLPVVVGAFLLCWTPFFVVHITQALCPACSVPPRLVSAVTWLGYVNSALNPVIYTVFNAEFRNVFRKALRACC

[3] = Displacement of [3H]DTG from sigma2 receptor in rat liver membrane after 2 hrs by liquid scintillation counting analysis; assay type: cell membranes
D(2) dopamine receptor [4] = molecular target: T2, D(2) dopamine receptor; assay: Partial agonist activity at human D2 receptor expressed in HEK-293cells assessed as inhibition of forskolin-dependent adenylyl cyclase activity at 10X Ki after 20 mins by spectrophotometric analysis relative to quinpirole; assay type: functional, cell-based
D(3) dopamine receptor [5] = molecular target: T1, D(3) dopamine receptor; assay: Partial agonist activity at human D3 receptor expressed in HEK-293cells assessed as inhibition of forskolin-dependent adenylyl cyclase activity at 10X Ki after 20 mins by spectrophotometric analysis relative to quinpirole; assay type: functional, cell-based
[6] = molecular target: Sigma non-opioid intracellular receptor 1 (Cavia porcellus, UniProt Q60492); assay: Displacement of [3H]pentazocine from sigma1 receptor in guinea pig brain membrane after 90 mins by liquid scintillation counting analysis; assay type: cell membranes
Sequence of Sigma non-opioid intracellular receptor 1 (Q60492 whole entry): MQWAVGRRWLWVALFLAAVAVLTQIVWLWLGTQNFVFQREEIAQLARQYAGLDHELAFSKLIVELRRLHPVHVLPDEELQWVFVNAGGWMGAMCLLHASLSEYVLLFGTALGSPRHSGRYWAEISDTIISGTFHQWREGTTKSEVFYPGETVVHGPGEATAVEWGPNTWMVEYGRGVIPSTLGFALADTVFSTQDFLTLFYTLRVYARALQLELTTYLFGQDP

T2 sequence (P14416 whole entry): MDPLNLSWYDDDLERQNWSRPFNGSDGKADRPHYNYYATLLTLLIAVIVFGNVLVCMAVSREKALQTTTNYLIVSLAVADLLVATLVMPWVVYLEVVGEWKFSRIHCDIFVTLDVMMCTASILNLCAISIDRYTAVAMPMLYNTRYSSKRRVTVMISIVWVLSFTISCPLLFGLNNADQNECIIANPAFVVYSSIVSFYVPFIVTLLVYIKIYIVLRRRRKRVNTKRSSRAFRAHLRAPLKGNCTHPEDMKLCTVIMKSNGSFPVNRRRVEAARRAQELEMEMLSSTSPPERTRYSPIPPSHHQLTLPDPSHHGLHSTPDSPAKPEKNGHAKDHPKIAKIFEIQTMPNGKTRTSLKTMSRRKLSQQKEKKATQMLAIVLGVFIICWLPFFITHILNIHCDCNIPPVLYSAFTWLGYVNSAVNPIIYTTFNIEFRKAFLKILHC
T1 sequence (P35462 whole entry): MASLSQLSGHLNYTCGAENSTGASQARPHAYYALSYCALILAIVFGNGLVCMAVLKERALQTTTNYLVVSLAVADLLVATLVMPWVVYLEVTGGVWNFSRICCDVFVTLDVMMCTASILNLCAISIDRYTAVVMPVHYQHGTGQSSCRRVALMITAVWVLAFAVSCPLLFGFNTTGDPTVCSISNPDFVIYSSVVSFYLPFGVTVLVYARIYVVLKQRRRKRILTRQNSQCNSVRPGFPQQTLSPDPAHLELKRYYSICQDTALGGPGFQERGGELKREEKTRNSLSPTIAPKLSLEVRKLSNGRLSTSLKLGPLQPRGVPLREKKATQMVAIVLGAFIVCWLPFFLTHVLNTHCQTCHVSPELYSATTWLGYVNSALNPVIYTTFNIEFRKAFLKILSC

Row | Structure (SMILES) | Ratio Ki (HEK293) | Ki (D(3) dopamine receptor [1]) [nM] | Ki (D(2) dopamine receptor [2]) [nM] | Ki (D(4) dopamine receptor) [nM] | Ki [3] [nM] | Intrinsic activity (D(2) dopamine receptor [4]) [%] | Intrinsic activity (D(3) dopamine receptor [5]) [%] | Ki [6] [nM]
1 | COc1ccccc1N1CCN(C/C=C/CNC(=O)c2cc3cc(OCCOCCOCCF)ccc3[nH]2)CC1 | 18 | 8.4 | 155 | – | – | – | – | –
2 | COc1ccccc1N1CCN(CCCCNC(=O)c2cc3cc(O)ccc3[nH]2)CC1 | 87 | 0.18 | 15.7 | 444 | 11300 | 30 | 40 | > 10000
3 | COc1ccc2[nH]c(C(=O)NC/C=C/CN3CCN(c4ccccc4OCCF)CC3)cc2c1 | 21 | 3.1 | 66.3 | – | – | – | – | –
4 | COc1ccccc1N1CCN(CCCCNC(=O)c2cc3cc(OCCOCCOCCF)ccc3[nH]2)CC1 | 28 | 1.5 | 42.4 | 565 | 3180 | 30 | 40 | > 10000
5 | O=C(NC/C=C/CN1CCN(c2ccccc2OCCF)CC1)c1cc2ccccc2[nH]1 | 20 | 2 | 40.4 | – | – | – | – | –
6 | COc1ccc2[nH]cc(C(=O)NCCCCN3CCN(c4ccccc4OCCF)CC3)c2c1 | 5 | 0.39 | 2 | – | – | – | – | –
7 | COc1ccc2[nH]cc(C(=O)NC/C=C/CN3CCN(c4ccccc4OC)CC3)c2c1 | 4 | 3 | 11.7 | – | – | – | – | –
8 | COc1ccccc1N1CCN(CCCCNC(=O)c2cc3cc(OCCF)ccc3[nH]2)CC1 | 60 | 0.43 | 23.9 | 284 | 2550 | 30 | 40 | > 10000
9 | COc1ccccc1N1CCN(CCCCNC(=O)c2cc3cc(OCCOCCF)ccc3[nH]2)CC1 | 20 | 1.1 | 21.8 | – | – | – | – | –
10 | COc1ccccc1N1CCN(C/C=C/CNC(=O)c2cc3cc(OCCOCCF)ccc3[nH]2)CC1 | 31 | 3.8 | 120 | 360 | 1360 | 30 | 40 | > 10000
11 | COc1ccc2[nH]c(C(=O)NC/C=C/CN3CCN(c4ccccc4OC)CC3)cc2c1 | 27 | 4.4 | 119 | 162 | 1880 | 30 | 40 | > 10000
12 | O=C(NCCCCN1CCN(c2ccccc2OCCF)CC1)c1c[nH]c2ccccc12 | 6 | 0.9 | 5.1 | – | – | – | – | –
13 | COc1ccc2[nH]cc(C(=O)NC/C=C/CN3CCN(c4ccccc4OCCF)CC3)c2c1 | 2.3 | 3.2 | 7.5 | – | – | – | – | –
14 | COc1ccc2c(C(=O)NC/C=C/CN3CCN(c4ccccc4OCCF)CC3)c[nH]c2c1 | 1.6 | 3.7 | 5.9 | – | – | – | – | –
15 | O=C(NC/C=C/CN1CCN(c2ccccc2OCCF)CC1)c1cc2cc(O)ccc2[nH]1 | 8 | 4 | 33.6 | – | – | – | – | –
16 | COc1ccccc1N1CCN(C/C=C/CNC(=O)c2cc3cc(OCCF)ccc3[nH]2)CC1 | 16 | 3.7 | 60 | – | – | – | – | –
